Measurements taken from US10798942B2, “Abiotic stress tolerance” (SYNGENTA PARTICIPATIONS AG, priority 2016, dated 2020).

Tested on: rice plants
Experiment: Multi-year analysis for 2015-2016 of field trials (17 trials)
Type: in vivo, Oryza sativa L.
Settings: 2015-2016, 17 trials; for Thousand grain weight (g/1000 seed): UTC 17.01; for Empty spikelets (number per 12 rice hills): UTC 5636; for Yield at 14% MC (kg/ha): UTC 6318
Procedure: Rice (Oryza sativa L.) of the local varieties ADT43, ADT45 and NK5251 were mechanically transplanted at four plants per hill with a plant spacing of 16 cm and a row spacing of 30 cm. All trials were performed in good level of water management. Fertilizer was applied in accordance with the best local practice across the trial area. Commercial treated seeds (no neonicotinoids as seed treatments) were used. Weed control was according to the best local practice in order to provide excellent weed control. Foliar fungicides and insecticides were applied according to common practice (no products that contain neonicotinoids or strobilurins). The trial design was a randomized bloc design. Plot size was 40 m^2 (4 m width [12 rows] by 10 m row length). Each trial had four replicates. In total, eleven trials were conducted. The compound of formula (Ia) was applied at a rate of 10 g ai/ha with small-plot hand-held boom sprayer. Application of the compound was as broadcast foliar spray in close proximity to leaf/canopy surface (25-40 cm distance from the crop). The used spray volumes were between 250 L/ha and 500 L/ha. Application was done either at panicle initiation (BBCH 30), at panicle formation (BBCH 32), at spikelet differentiation (BBCH 35), at meiosis (BBCH 39) or at heading (BBCH 51). In some experiments, the compound was applied twice (2×10 g ai/ha) at consecutive growth stages (i.e., BBCH 30+32, BBCH 32+35, BBCH 35+39, and BBCH 39+51). Tolerance to heat stress was assessed by measuring the following yield components: number of panicles per area, number of grains per panicle, percentage of ripened (filled) grains, number of tillers per area, percentage of productive tillers, grain yield per area at 14% moisture and thousand grain weight (TGVV). Further trials were conducted in the Tamil Nadu rice production area (India) in 2016 using the protocol as described above using rice variety ADT45, with treatment timings of panicle initiation (BBCH 30), panicle formation (BBCH 32), spikelet differentiation (BBCH 35) and meiosis (BBCH 39) only. The compound of formula (Ia) was applied at a rate of 10 g Al/ha. Grain yield was measured at 14% moisture content (MC).

Compound: COc1cccc(Nc2nc(F)nc3[nH]cnc23)c1 [formula (Ia)]
- Empty spikelets, % change compared to UTC (BBCH 30 at application): −12.5%
- Thousand grain weight, % change compared to UTC (BBCH 30 at application): +1.3%
- Yield at 14% MC, % change compared to UTC (BBCH 30 at application): +4.1%
- Thousand grain weight (g/1000 seed) (BBCH 30 at application): 17.24 g/1000 seed
- Empty spikelets (number per 12 rice hills) (BBCH 30 at application): 4927 number per 12 rice hills
- Yield at 14% MC (kg/ha) (BBCH 30 at application): 6583 kg/ha
- Empty spikelets, % change compared to UTC (BBCH 32 at application): −9.2%
- Thousand grain weight, % change compared to UTC (BBCH 32 at application): +1.4%
- Yield at 14% MC, % change compared to UTC (BBCH 32 at application): +6.5%
- Thousand grain weight (g/1000 seed) (BBCH 32 at application): 17.25 g/1000 seed
- Empty spikelets (number per 12 rice hills) (BBCH 32 at application): 5115 number per 12 rice hills
- Yield at 14% MC (kg/ha) (BBCH 32 at application): 6727 kg/ha
- Empty spikelets, % change compared to UTC (BBCH 35 at application): −7.6%
- Thousand grain weight, % change compared to UTC (BBCH 35 at application): +1.3%
- Yield at 14% MC, % change compared to UTC (BBCH 35 at application): +6.3%
- Thousand grain weight (g/1000 seed) (BBCH 35 at application): 17.23 g/1000 seed
- Empty spikelets (number per 12 rice hills) (BBCH 35 at application): 5206 number per 12 rice hills
- Yield at 14% MC (kg/ha) (BBCH 35 at application): 6713 kg/ha
- Empty spikelets, % change compared to UTC (BBCH 39 at application): −8.3%
- Thousand grain weight, % change compared to UTC (BBCH 39 at application): +1.4%
- Yield at 14% MC, % change compared to UTC (BBCH 39 at application): +5.2%
- Thousand grain weight (g/1000 seed) (BBCH 39 at application): 17.25 g/1000 seed
- Empty spikelets (number per 12 rice hills) (BBCH 39 at application): 5170 number per 12 rice hills
- Yield at 14% MC (kg/ha) (BBCH 39 at application): 6643 kg/ha
